This note sets out measurements from ChEMBL document CHEMBL1201862, “PubChem BioAssay data set” (2004).

Structures are written as SMILES.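 Values below derive from 48-hour exposures of cells grown in 96-well plates, with endpoints linearly interpolated between the two concentrations bracketing the appropriate inhibition level. GI50 = concentration required for 50% inhibition of growth.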 Activity calls are given as the source filed them. Rule as the data show it: active = GI50 up to about 1.1 µM and inactive = higher.

What all share (experiment): NCI-60 cell line screen, 48 h
Assay [1] relates to 786-0.
Assay [2] has as its system ACHN.
Assay [3] deals with CAKI-1.
Assay [4] deals with CCRF-CEM.
In assay [5] the test system is HCT-15.
Assay [6] relates to K562.
The test system of assay [7] is KM-20L2.
For assay [8], the system named is LOX IMVI.
In assay [9] the test system is M14.
The test system of assay [10] is NCI-H23.
Assay [11] has as its system NCI-H522.
Assay [12] deals with OVCAR-3.
The test system of assay [13] is OVCAR-5.
Assay [14] deals with SK-OV-3.
The test system of assay [15] is U-251.
The test system of assay [16] is SN12C.

As for `S=P1(c2ccccc2)Nc2ccc(Cl)cc2N1` (centres undefined), the GI50 is > 100 µM (inactive) in [1]; 89.1 µM (inactive) in assay [2]; 32.6 µM (inactive) in assay [3]; 4.45 µM (inactive) in [4]; 58.5 µM in assay [5]; 49.3 µM (inactive) in [6]. Also, the GI50 in assay [7] was > 100 µM (inactive); in [8] it was > 100 µM (inactive); in [9], 18.5 µM (inactive); in [10], > 100 µM (inactive); in assay [11] it was 36.5 µM (inactive); in assay [12] it was > 100 µM (inactive). The GI50 in [13] was > 100 µM (inactive); in assay [14], 37.5 µM (inactive); in [15] it was > 100 µM (inactive).

For `CCOC(=O)C1=C(NC)OC/C1=N\NC(=O)c1ccccc1O`, the GI50 was 33.4 µM (inactive) in assay [1]; 17.1 µM (inactive) in assay [3]; 14.9 µM (inactive) in [4]; 18.6 µM (inactive) in assay [6]; 39.7 µM (inactive) in [7]; 15.2 µM (inactive) in assay [8]. Besides, the GI50 in [9] was 22.5 µM (inactive); in assay [10], 6.87 µM (inactive); in assay [11], 9.31 µM (inactive); in assay [12], 19.9 µM (inactive); in [13], 48.3 µM (inactive); in assay [14], > 100 µM (inactive). Also, the GI50 in [16] is 45.9 µM (inactive); in assay [15], 19.3 µM (inactive).

As to `COc1cc2c3c(c1OC)/C(=N/OS(=O)(=O)c1ccc(C)cc1)CC3N(S(=O)(=O)c1ccc(C)cc1)CC2` (centres undefined), the GI50 in assay [1], in [2], in assay [3], in [4], in [6] and in [7] was > 100 µM (inactive) in each case. The GI50 in assay [8], in [9], in assay [10], in assay [11], in assay [12] and in assay [13] was > 100 µM (inactive) throughout. Besides, the GI50 in assay [14], in assay [16] and in assay [15] was > 100 µM (inactive) throughout.

As for `O=C(O)C1=CCCc2ccc3ccccc3c21`, the GI50 in [1] was > 100 µM (inactive); in [2] it was > 100 µM (inactive); in assay [4], > 10 µM (inactive); in assay [5], over 100 µM; in assay [6] it was > 100 µM (inactive); in assay [7], > 100 µM (inactive). Besides, the GI50 in [8], in assay [9], in [10], in assay [11], in assay [12] and in assay [13] was > 100 µM (inactive) in each case. Besides, the GI50 in [14], in [16] and in assay [15] was > 100 µM (inactive) each time.

Take `CSC(SC)=C1Sc2cccc(Cl)c2S1`: the GI50 in assay [1] is 28.5 µM (inactive); in assay [2], 74 µM (inactive); in assay [3] it was 43 µM (inactive); in [4] it was 28.8 µM (inactive); in assay [5], 48.3 µM; in assay [6], 23.9 µM (inactive). Moreover, the GI50 in assay [7] is 36.9 µM (inactive); in assay [8], 42.6 µM (inactive); in [9], 82 µM (inactive); in [10] it was 55.2 µM (inactive); in assay [11], 26.1 µM (inactive); in assay [13], 45.6 µM (inactive). For the same compound, the GI50 is 98.4 µM (inactive) in assay [14], > 100 µM (inactive) in assay [16] and 65.2 µM (inactive) in [15].
